{
  "source": "DBAASP",
  "assay_in_all_cases": "≥ marks a high value that may be exact or a test limit, other limits are often not marked, values filed in µg/mL are converted to µM",
  "key": {"Staphylococcus aureus": {"system": "Staphylococcus aureus"}, "Streptococcus sanguinis": {"system": "Streptococcus sanguinis"}, "[1]": {"system": "Staphylococcus aureus ATCC 29213"}, "[2]": {"system": "Enterococcus faecium ATCC BAA-2316"}, "[3]": {"system": "Staphylococcus epidermidis ATCC 12228"}, "[4]": {"system": "Staphylococcus aureus ATCC 43300"}, "[5]": {"system": "Klebsiella pneumoniae NCTC 13368"}, "[6]": {"system": "Enterococcus faecalis ATCC BAA-2365"}, "[7]": {"system": "Enterococcus faecalis ATCC 19433"}, "[8]": {"system": "Escherichia coli NCTC 12923"}, "[9]": {"system": "Staphylococcus aureus USA 300"}, "[10]": {"system": "Pseudomonas aeruginosa PAO1"}, "[11]": {"system": "Acinetobacter baumannii ATCC 17978"}, "[12]": {"system": "Staphylococcus aureus ATCC 33591"}, "[13]": {"system": "Enterococcus faecalis ATCC 29212"}, "[14]": {"system": "Staphylococcus aureus ATCC BAA-41"}, "[15]": {"system": "Staphylococcus aureus ATCC 9144"}, "[16]": {"system": "Pseudomonas aeruginosa ATCC 9027"}, "[17]": {"system": "Pseudomonas aeruginosa ATCC 27853"}, "[18]": {"system": "Staphylococcus aureus ATCC 25923"}, "[19]": {"system": "Staphylococcus aureus ATCC 19636"}, "[20]": {"system": "Escherichia coli ATCC 25922"}, "[21]": {"system": "Klebsiella pneumoniae ST258"}, "Escherichia coli ST131": {"system": "Escherichia coli ST131"}, "Staphylococcus xylosus": {"system": "Staphylococcus xylosus"}, "Enterococcus faecium": {"system": "Enterococcus faecium"}, "Escherichia coli JM109": {"system": "Escherichia coli JM109"}, "Citrobacter koseri": {"system": "Citrobacter koseri"}, "[22]": {"system": "Klebsiella pneumoniae CCRC 10694"}, "[23]": {"system": "Staphylococcus aureus CCRC 15211"}, "[24]": {"system": "Bifidobacterium adolescentis"}, "Salmonella enterica": {"system": "Salmonella enterica"}, "Escherichia coli BL21": {"system": "Escherichia coli BL21"}, "[25]": {"system": "Staphylococcus aureus CCRC 12652"}, "[26]": {"system": "Salmonella typhimurium CCRC 12947"}, "[27]": {"system": "Vibrio parahaemolyticus CCRC 10806"}, "[28]": {"system": "Lactobacillus delbrueckii subsp. bulgaricus"}, "Pseudomonas aeruginosa": {"system": "Pseudomonas aeruginosa"}, "[29]": {"system": "Salmonella enterica subsp. enterica serovar Pullorum ATCC 7913"}, "[30]": {"system": "Candida tropicalis CGMCC 2.1975"}, "[31]": {"system": "Salmonella enterica subsp. enterica serovar Typhimurium ATCC 14028"}, "Escherichia coli 1005": {"system": "Escherichia coli 1005"}, "Candida albicans": {"system": "Candida albicans"}, "[32]": {"system": "Candida parapsilosis CGMCC 2.3989"}, "[33]": {"system": "Candida krusei CGMCC 2.1857"}, "[34]": {"system": "Staphylococcus pseudintermedius"}},
  "data": [
    {"compound": "NC(=O)[C@H](Cc1ccccc1)NC(=O)[C@H](Cc1ccccc1)NC(=O)[C@H](Cc1ccccc1)NC(=O)[C@H](Cc1ccccc1)NC(=O)[C@H](Cc1ccccc1)NC(=O)[C@@H](N)Cc1ccccc1", "note": "[FFFFFF]", "values": [
      {"measurement": "MIC", "setting": "Staphylococcus aureus", "value": 14.3, "unit": "µM"},
      {"measurement": "MIC", "setting": "Streptococcus sanguinis", "value": 8.3, "unit": "µM"}
    ]},
    {"compound": "CC[C@H](C)[C@H](NC(=O)[C@H](C)NC(=O)[C@H](CCCCN)NC(=O)[C@H](CCCN=C(N)N)NC(=O)[C@@H](NC(=O)[C@H](CC(C)C)NC(=O)[C@H](CO)NC(=O)[C@H](Cc1ccccc1)NC(=O)[C@H](CC(C)C)NC(=O)[C@@H](N)Cc1ccccc1)[C@@H](C)CC)C(=O)NCC(=O)NCC(=O)N[C@@H](CC(C)C)C(=O)N[C@H](C(=O)N[C@@H](CO)C(=O)N[C@@H](C)C(=O)N[C@@H](Cc1ccccc1)C(=O)N[C@@H](CCCCN)C(=O)O)[C@@H](C)CC", "note": "[FLFSLIRKAIGGLISAFK]", "values": [
      {"measurement": "MIC", "setting": "[1]", "value": 5, "unit": "µM"},
      {"measurement": "MIC", "setting": "[2]", "value": 15, "unit": "µM"},
      {"measurement": "MIC", "setting": "[3]", "value": 2.5, "unit": "µM"},
      {"measurement": "MIC", "setting": "[4]", "value": 5, "unit": "µM"},
      {"measurement": "MIC", "setting": "[5]", "value": "≥ 64.6", "unit": "µM"},
      {"measurement": "MIC", "setting": "[6]", "value": 5, "unit": "µM"},
      {"measurement": "MIC", "setting": "[7]", "value": 12.5, "unit": "µM"},
      {"measurement": "MIC", "setting": "[8]", "value": "≥ 64.6", "unit": "µM"},
      {"measurement": "MIC", "setting": "[9]", "value": 16.1, "unit": "µM"},
      {"measurement": "MIC", "setting": "[10]", "value": "> 64.6", "unit": "µM"},
      {"measurement": "MIC", "setting": "[11]", "value": 4.04, "unit": "µM"},
      {"measurement": "MIC", "setting": "[12]", "value": 5, "unit": "µM"},
      {"measurement": "MIC", "setting": "[13]", "value": 10, "unit": "µM"},
      {"measurement": "MIC", "setting": "[14]", "value": 5, "unit": "µM"},
      {"measurement": "MIC", "setting": "[15]", "value": 8.07, "unit": "µM"}
    ]},
    {"compound": "CC(C)C[C@H](NC(=O)[C@H](C)NC(=O)[C@H](CCCCN)NC(=O)[C@H](CC(C)C)NC(=O)[C@H](Cc1c[nH]c2ccccc12)NC(=O)[C@H](CCCCN)NC(=O)[C@H](CCCN=C(N)N)NC(=O)[C@H](Cc1c[nH]c2ccccc12)NC(=O)[C@H](CCCCN)NC(=O)[C@@H](N)CCCCN)C(=O)N[C@@H](C)C(=O)N[C@@H](CCCCN)C(=O)N[C@@H](CCCCN)C(=O)O", "note": "[KKWRKWLKALAKK]", "values": [
      {"measurement": "MIC", "setting": "[1]", "value": 29.7, "unit": "µM"},
      {"measurement": "MIC", "setting": "[16]", "value": 14.8, "unit": "µM"},
      {"measurement": "MIC", "setting": "[17]", "value": 14.8, "unit": "µM"},
      {"measurement": "MIC", "setting": "[18]", "value": "> 29.7", "unit": "µM"},
      {"measurement": "MIC", "setting": "[19]", "value": 3.74, "unit": "µM"},
      {"measurement": "MIC", "setting": "[20]", "value": 7.42, "unit": "µM"}
    ]},
    {"compound": "CC(C)C[C@H](NC(=O)[C@H](Cc1c[nH]c2ccccc12)NC(=O)[C@H](CCCCN)NC(=O)[C@H](CC(C)C)NC(=O)[C@H](Cc1c[nH]c2ccccc12)NC(=O)[C@H](CCCCN)NC(=O)[C@H](CCCN=C(N)N)NC(=O)[C@H](Cc1c[nH]c2ccccc12)NC(=O)[C@H](CCCCN)NC(=O)[C@@H](N)CCCCN)C(=O)N[C@@H](C)C(=O)N[C@@H](CCCCN)C(=O)N[C@@H](CCCCN)C(N)=O", "note": "[KKWRKWLKWLAKK]", "values": [
      {"measurement": "MIC", "setting": "[21]", "value": 4, "unit": "µM"},
      {"measurement": "MIC", "setting": "[20]", "value": 2, "unit": "µM"},
      {"measurement": "MIC", "setting": "Escherichia coli ST131", "value": 2, "unit": "µM"}
    ]},
    {"compound": "CC[C@H](C)[C@H](NC(=O)[C@H](CO)NC(=O)[C@H](CCCCN)NC(=O)[C@H](Cc1c[nH]c2ccccc12)NC(=O)[C@H](CCCCN)NC(=O)[C@@H](N)CC(C)C)C(=O)N[C@H](C(=O)N[C@@H](CO)C(=O)N[C@@H](Cc1c[nH]c2ccccc12)C(=O)N[C@@H](C)C(=O)N[C@@H](CCCCN)C(=O)N[C@@H](CCCCN)C(=O)N[C@H](C(=O)N[C@@H](CC(C)C)C(N)=O)C(C)C)C(C)C", "note": "[LKWKSIVSWAKKVL]", "values": [
      {"measurement": "MIC", "setting": "Staphylococcus xylosus", "value": 0.296, "unit": "µM"},
      {"measurement": "MIC", "setting": "Enterococcus faecium", "value": "≥ 75.9", "unit": "µM"},
      {"measurement": "MIC", "setting": "Escherichia coli JM109", "value": 0.593, "unit": "µM"},
      {"measurement": "MIC", "setting": "Citrobacter koseri", "value": 0.839, "unit": "µM"},
      {"measurement": "MIC", "setting": "[22]", "value": 4.74, "unit": "µM"},
      {"measurement": "MIC", "setting": "[23]", "value": 3.35, "unit": "µM"},
      {"measurement": "MIC", "setting": "[24]", "value": "≥ 75.9", "unit": "µM"},
      {"measurement": "MIC", "setting": "Salmonella enterica", "value": 3.35, "unit": "µM"},
      {"measurement": "MIC", "setting": "Escherichia coli BL21", "value": 1.68, "unit": "µM"},
      {"measurement": "MIC", "setting": "[25]", "value": 3.35, "unit": "µM"},
      {"measurement": "MIC", "setting": "[26]", "value": 2.37, "unit": "µM"},
      {"measurement": "MIC", "setting": "[27]", "value": 2.37, "unit": "µM"},
      {"measurement": "MIC", "setting": "[28]", "value": "≥ 75.9", "unit": "µM"},
      {"measurement": "MIC", "setting": "Pseudomonas aeruginosa", "value": 26.8, "unit": "µM"}
    ]},
    {"compound": "CC[C@H](C)[C@H](NC(=O)[C@H](CCCN=C(N)N)NC(=O)[C@@H](NC(=O)[C@@H](NC(=O)[C@@H](NC(=O)[C@H](CCCN=C(N)N)NC(=O)[C@@H](NC(=O)[C@H](CCCN=C(N)N)NC(=O)[C@@H](N)CCCN=C(N)N)[C@@H](C)CC)[C@@H](C)CC)[C@@H](C)CC)[C@@H](C)CC)C(=O)N[C@@H](CCCN=C(N)N)C(=O)N[C@@H](CCCN=C(N)N)C(N)=O", "note": "[RRIRIIIRIRR]", "values": [
      {"measurement": "MIC", "setting": "[29]", "value": 2, "unit": "µM"},
      {"measurement": "MIC", "setting": "[1]", "value": 4, "unit": "µM"},
      {"measurement": "MIC", "setting": "[30]", "value": 1, "unit": "µM"},
      {"measurement": "MIC", "setting": "[3]", "value": 4, "unit": "µM"},
      {"measurement": "MIC", "setting": "[4]", "value": 4, "unit": "µM"},
      {"measurement": "MIC", "setting": "[18]", "value": 4, "unit": "µM"},
      {"measurement": "MIC", "setting": "[31]", "value": 4, "unit": "µM"},
      {"measurement": "MIC", "setting": "Escherichia coli 1005", "value": 4, "unit": "µM"},
      {"measurement": "MIC", "setting": "Candida albicans", "value": 1.41, "unit": "µM"},
      {"measurement": "MIC", "setting": "[32]", "value": 4, "unit": "µM"},
      {"measurement": "MIC", "setting": "[33]", "value": 2, "unit": "µM"}
    ]},
    {"compound": "CC(=O)N[C@@H](CCCN=C(N)N)C(=O)N[C@@H](CCCN=C(N)N)C(=O)N[C@@H](CCCN=C(N)N)C(=O)N[C@@H](Cc1c[nH]c2ccccc12)C(=O)N[C@@H](CCCN=C(N)N)C(=O)N[C@@H](CCCCN)C(=O)N[C@@H](CCCN=C(N)N)C(=O)N[C@@H](CCCN=C(N)N)C(=O)N[C@@H](Cc1c[nH]c2ccccc12)C(=O)N[C@@H](Cc1c[nH]c2ccccc12)C(=O)N[C@@H](Cc1c[nH]c2ccccc12)C(N)=O", "note": "[RRRWRKRRWWW]", "values": [
      {"measurement": "MIC", "setting": "[1]", "value": 17.5, "unit": "µM"},
      {"measurement": "MIC", "setting": "[34]", "value": 24.8, "unit": "µM"},
      {"measurement": "MIC", "setting": "[17]", "value": 17.5, "unit": "µM"},
      {"measurement": "MIC", "setting": "Pseudomonas aeruginosa", "value": 24.8, "unit": "µM"}
    ]}
  ]
}
